Patent publication US8168644B2, “Quinazolinone derivatives as tubulin polymerization inhibitors” (Janssen Pharmaceutica NV, priority 2008, dated 2012)

Assays:
[1] = test system: Human prostate cancer PC-3 cells; experiment: Anti-proliferative effect, Alamar Blue assay, PC-3; format: cell-based; conditions: Homo sapiens, 96 h, 4-day incubation, read-out: PC3 antiproliferative activity pIC50 (converted)
Protocol: Human prostate cancer PC-3 cells obtained from the ATCC were cultured in HAM'S F12 medium supplemented with 1 mM Sodium Pyruvate, 1.5 g/L Sodium Bicarbonate, 50 μg/ml gentamicin, non-essential amino acids and 10% fetal calf serum.
(§1) Resazurin was purchased from Aldrich (Prod. No. 199303). Potassium ferrocyanide, potassium ferricyanide, KH2PO4 and K2HPO4 were purchased from Sigma (Prod. Nos. P9387, P8131, P5655 and P8281, respectively).
(§2) Potassium Phosphate Buffer 0.1 M (PPB) was made as follows: 2.72 gram KH2PO4 and 13.86 gram K2HPO4 were dissolved in 500 ml milli-Q H2O, the pH was adjusted to pH 7.4 and the volume was brought to 1 liter with milli-Q H2O; the buffer was filter sterilised and stored at room temperature. Resazurin stock solution (PPB-A) was prepared fresh by dissolving 45 mg resazurin in 15 ml PBS. 30 mM potassium ferricyanide (PPB-B) was prepared by dissolving 0.987 gram potassium ferricyanide in 100 ml PPB. 30 mM potassium ferrocyanide (PPB-C) was prepared by dissolving 1.266 gram potassium ferrocyanide in 100 ml PPB.
(§3) Mixture of PPB-A, PPB-B and PPB-C was prepared by mixing equal volumes of the respective solutions. Resazurin work solution (herein termed “Alamar Blue” solution) was prepared by diluting said mixture 20× (vol/vol) in PPB and filter sterilising; the Alamar Blue solution could be kept at 4° C. for a maximum of 2 weeks.
(§4) For experiments in 384 wells plates the cells were seeded at a density of 4.5×10^3 cells/ml in Falcon 384-well culture plates (Life Technologies, Merelbeke, Belgium), black with clear bottom, in 45 μl culture medium. Cells were allowed to adhere to plastic for 24 hours. The tested compound was pre-diluted (1/50 in culture medium) and 5 μl pre-diluted compound was added to the wells. Following 4-day incubation, 10 μl of the Alamar Blue solution was added to each well and the cells were further incubated for 4 hours (HCT116) or 24 hours (PC-3) at 37° C. The fluorescence intensity was measured for each well on a Fluorescence plate reader (Fluoroskan, Labsystems, 540 nm excitation and 590 nm emission)
(§5) The antiproliferative activity was calculated as percentage of remaining viable cells in treated versus control (untreated cells) conditions. Within an experiment, the result for each experimental condition is the mean of 3 replicate wells. When appropriate, the experiments were repeated to establish full concentration-response curves. When appropriate, IC50-values (concentration of the drug, needed to reduce cell growth to 50% of the control) were computed using probit analysis for graded data (Finney, D. J., Probit Analyses, 2nd Ed. Chapter 10, Graded Responses, Cambridge University Press, Cambridge 1962). Herein the effects of test compounds are expressed as pIC50 (the negative log value of the IC50-value) (see Table 3).

[2] = test system: human prostate cancer PC3 cells; experiment: Eb1 cellular assay (Eb1 Comet assay); format: cell-based; conditions: 1 hour treatment, LAC = concentration where Eb1 foci absent in at least 50% of treated cells
Protocol: The Eb1 Comet assay relies on the detection of the Eb1 protein at the plus end of polymerizing microtubules (Mimori-Kiyosue, 2000) using indirect immunofluorescence. Disruption of microtubule dynamics through de-polymerization or stabilization results in a de-localization of Eb1 from the growing microtubule ends and this is visualized by the disappearance of Eb1 containing cytoplasmic foci.
Briefly, human prostate cancer PC3 cells obtained from the American Type Culture Collection were grown in 96-well plates (Greiner, cat. no. 655090) in HAM's F12 medium as recommended by the provider (ATCC). The cells were treated for 1 hour at 37° C. with compounds dissolved in DMSO (0.6% final DMSO concentration). The culture medium was then removed by aspiration and the cells were fixed by adding cold methanol (−20° C.). After a 15 minutes incubation at −20° C., the cells were washed twice with DPBS (Gibco) containing 0.5% Triton X-100. Mouse Eb1 antibody (BD Transduction Laboratories, cat. no. 610534) was added to the cells (1/250 dilution in DPBS containing 1% BSA) and incubated overnight at room temperature. The antibody was subsequently removed and the cells washed twice with DPBS, 0.5% Triton X-100. Secondary goat anti-mouse antibody conjugated to Alexa 488 fluorescent dye (Molecular Probes) was added at a 1/500 dilution in DPBS, 1% BSA and incubated for 1 hour at 37° C. The cells were washed twice with DPBS, 0.5% Triton X-100 and then DPBS containing 0.5% Triton X-100 and 1/5000 Hoechst 33342 (Molecular Probes) was added. Microscopy based Eb1 foci visualization was carried out using an IN Cell Analyser 1000 (Amersham Biosciences) using a 20× objective. Compound dependent microtubule disruption was visually determined by the disappearance in Eb1 foci. The lowest active concentration (LAC) was determined as the concentration where Eb1 foci were absent in at least 50% of the treated cells. Herein the effects of test compounds are expressed as pLAC (the negative log value of the LAC-value) (see Table 3).

α-β-Tubulin = α-β-Tubulin polymerization assay; format: biochemical; conditions: inhibition of polymerization at 20 μM and 5 μM, reported as score
Protocol: The tubulin polymerization assay is an adaptation of an assay originally described by Bonne, D. et al. (J. Biol. Chem., 1985, 260:2819-25). The assay kit was purchased from Cytoskeleton, Inc. (catalogue number BK011) and the assay was performed as described by the supplier with the following modifications. The assay was run in a 384-well black Proxiplate (Perkin Elmer) and volumes were adapted accordingly. The reactions were carried out in a final volume of 10 μl. Compounds were added to 25 μl of the reaction mix in 96-well PP plates (Corning) on ice and 10 μl of this mixture was dispensed into duplicates of the 384-well Proxiplates pre-warmed to 37° C. in a Fluoroskan Ascent plate reader (Thermo Scientific). Fluorescence measurements were taken every minute for one hour. The maximum slope of each well was determined (linear regression through 4 consecutive points) and polymerization was calculated as a percentage of polymerization observed in the absence of compound. Compounds were first measured at a concentration of 20 μM and then at 5 μM for those showing more than 50% inhibition at 20 μM as compared to the polymerization observed in the absence of compound. Results are reported in Table F-2 as scores defined as: a compound showing 0 to 50% inhibition at 20 μM is reported as score 1; a compound showing more than 50% inhibition at 5 μM is reported as score 3.

[3] = test system: Human colon carcinoma HCT116 cells; experiment: Anti-proliferative effect, Alamar Blue assay, HCT116; format: cell-based; conditions: Homo sapiens, HCT-116, 96 h, 4-day incubation, read-out: HCT116 antiproliferative activity pIC50 (converted)
Protocol: Human colon carcinoma HCT116 cells obtained from the ATCC were cultured in McCoy's 5A medium supplemented with 2 mM L-Glutamine, 50 μg/ml gentamicin and 10% heat inactivated fetal calf serum.
as §1, §2, §3, §4, §5

SMILES | melting point [°C] | IC50 [1] [nM] | Eb1 pLAC [2] | tubulin polymerization score (α-β-Tubulin) | IC50 [3] [nM]
CN1Cc2ccc(C(C)(C#N)Cc3ccccc3)cc2NC1=O (centres unmarked) [Compound 7] | 210 | 501 | 6.5 | 3 (a compound showing more than 50% inhibition at 5 μM is reported as score 3) | 794
C#Cc1cccc(CC(C)(C#N)c2ccc3c(c2)NC(=O)N(CC)C3)c1 (centres unmarked) [Compound 10] | 84.4 to 102.4 | 316 | 7 | 3 (a compound showing more than 50% inhibition at 5 μM is reported as score 3) | 158
CCN1Cc2ccc([C@](C)(C#N)Cc3cccc(C#N)c3)cc2NC1=O [Compound 6] | 152 | 100 | 7 | 3 (a compound showing more than 50% inhibition at 5 μM is reported as score 3) | 50.1
CCN1Cc2ccc(C(C)(C#N)Cc3cccc(I)c3)cc2NC1=O (centres unmarked) [Compound 8] | 83 | 501 | 6.5 | 3 (a compound showing more than 50% inhibition at 5 μM is reported as score 3) | 200
CCN1Cc2ccc([C@@](C)(C#N)Cc3ccccc3)cc2NC1=O [Compound 3] | 124 | > 10000 |  | 1 (a compound showing 0 to 50% inhibition at 20 μM is reported as score 1) | > 10000
CCN1Cc2ccc([C@@](C)(C#N)Cc3cccc(C#N)c3)cc2NC1=O [Compound 5] | 152 | > 10000 |  | 1 (a compound showing 0 to 50% inhibition at 20 μM is reported as score 1) | > 10000
CCN1Cc2ccc([C@](C)(C#N)Cc3nc(OC)cc(OC)n3)cc2NC1=O (single isomer, unassigned) [Compound 1] | 95 | 79.4 | >7.5 |  | 39.8
